Earlier results in PMC7904743, “WIDOCK: a reactive docking protocol for virtual screening of covalent inhibitors” (Journal of Computer-Aided Molecular Design, 2021).
Read-outs that look alike come from different tables or passages of the source.

Key:
NUDT7 = details: protein labeling at 200 μM; experimental actives if % labeling higher than 50%; cited from earlier work
[1] = thiol reactivity, cited from earlier work
OTUB2 = details: experimental actives if % labeling higher than 50%, cited from earlier work
[2] = natural log of average kinetic rate constant
[3] = natural log of average rate constant
[4] = natural log of average rate constant k
[5] = natural logarithm of average rate constant

| Structure (SMILES) | NUDT7 % labeling (NUDT7) | ln(avg k) [1, 2] | ln(avg k) [1, 3] | OTUB2 % labeling (OTUB2; OTUB2 protein labeling) | ln(avg k) [1, 4] | ln(avg k) [1, 5] | OTUB2 % labeling (OTUB2) |
| --- | --- | --- | --- | --- | --- | --- | --- |
| O=C(CCl)NNC(=O)c1ccc([N+](=O)[O-])cc1 [PCM-0102885, O=C(CCl)NNC(=O)c1ccc([N+](=O)[O-])cc1] | 0% | -16.970 | -16.970 | 21% |  |  |  |
| O=C(CCl)NCC(=O)N1CCCC1 [PCM-0102391, O=C(CCl)NCC(=O)N1CCCC1] | 0% |  |  |  | -17.246 | -17.246 | 0% |
| COC(=O)c1cc(Cl)cc(Cl)c1NC(=O)CCl [PCM-0102912, COC(=O)c1cc(Cl)cc(Cl)c1NC(=O)CCl] | 17% | -17.100 | -17.100 | 0% |  |  |  |
| NS(=O)(=O)c1ccccc1NC(=O)CCl [PCM-0102903, NS(=O)(=O)c1ccccc1NC(=O)CCl] | 29% | -14.783 | -14.783 | 14% |  |  |  |
| O=C(CCl)NC(=O)Nc1ccccc1F [PCM-0102376, O=C(CCl)NC(=O)Nc1ccccc1F] | 0% |  |  |  | -15.900 | -15.900 | 0% |
| O=C(CCl)N(c1ccc(F)cc1)C1C=CS(=O)(=O)C1 (stereo not drawn) [PCM-0102868, O=C(CCl)N(c1ccc(F)cc1)C1C=CS(=O)(=O)C1] | 34% | -15.576 | -15.576 | 0% |  |  |  |
| CC1CN(C(=O)CCl)CC(C)O1 (stereo not drawn) [PCM-0102796, CC1CN(C(=O)CCl)CC(C)O1] | 0% | -15.522 | -15.522 | 0% |  |  |  |
| Cc1cc(NC(=O)CCl)ccc1N1CCCC1 [PCM-0102175, Cc1cc(NC(=O)CCl)ccc1N1CCCC1] | 13% |  |  |  | -15.490 | -15.490 | 39% |
| O=C(CCl)N1CCN(Cc2ccc(Cl)s2)CC1 [PCM-0102277, O=C(CCl)N1CCN(Cc2ccc(Cl)s2)CC1] | 0% |  |  |  | -15.648 | -15.648 | 9% |
| CN(CC(=O)NC(C)(C)C)C(=O)CCl [PCM-0102259, CN(CC(=O)NC(C)(C)C)C(=O)CCl] | 0% |  |  |  | -16.044 | -16.044 | 0% |
| O=C(CCl)Nc1nc(-c2c[nH]c3ccccc23)cs1 [PCM-0102233, O=C(CCl)Nc1nc(-c2c[nH]c3ccccc23)cs1] | 26% |  |  |  | -15.707 | -15.707 | 25% |
| O=C(CCl)N1CCN(c2ncccn2)CC1 [PCM-0102093, O=C(CCl)N1CCN(c2ncccn2)CC1] | 0% |  |  |  | -15.547 | -15.547 | 0% |
| CC(=O)N1CCc2cc(NC(=O)CCl)ccc21 [PCM-0102129, CC(=O)N1CCc2cc(NC(=O)CCl)ccc21] | 7% |  |  |  | -15.858 | -15.858 | 31% |
| CC(C)(C)NC(=O)CNC(=O)CCl [PCM-0102817, CC(C)(C)NC(=O)CNC(=O)CCl] | 0% | -16.378 | -16.378 | 41% |  |  |  |
| O=C(CCl)NNC(=O)c1ccc(F)cc1 [PCM-0102430, O=C(CCl)NNC(=O)c1ccc(F)cc1] | 0% |  |  |  | -17.459 | -17.459 | 31% |
| CCN(C(=O)CCl)C1CCS(=O)(=O)C1 (stereo not drawn) [PCM-0102105, CCN(C(=O)CCl)C1CCS(=O)(=O)C1] | 0% |  |  |  | -15.384 | -15.384 | 0% |
| N#CC1(NC(=O)CCl)CCC1 [PCM-0102854, N#CC1(NC(=O)CCl)CCC1] | 9% | -16.080 | -16.080 | 0% |  |  |  |
| Cc1ccc(N(C(=O)CCl)C2C=CS(=O)(=O)C2)cc1 (stereo not drawn) [PCM-0102539, Cc1ccc(N(C(=O)CCl)C2C=CS(=O)(=O)C2)cc1] | 33% |  |  |  | -15.258 | -15.258 | 16% |
| O=C(CCl)Nc1cccc(Cl)c1 [PCM-0102198, O=C(CCl)Nc1cccc(Cl)c1] | 28% |  |  |  | -16.004 | -16.004 | 37% |
| O=C(CCl)NNC(=O)C1CCC1 [PCM-0103061, O=C(CCl)NNC(=O)C1CCC1] | 28% | -15.962 | -15.962 | 14% |  |  |  |
| Cc1ccccc1CN1CCN(C(=O)CCl)CC1 [PCM-0102876, Cc1ccccc1CN1CCN(C(=O)CCl)CC1] | 0% | -15.594 | -15.594 | 0% |  |  |  |

| Structure (SMILES) | NUDT7 % labeling (NUDT7) | ln(avg k) [1, 2] | ln(avg k) [1, 3] | OTUB2 % labeling (OTUB2; OTUB2 protein labeling) | ln(avg k) [1, 4] | ln(avg k) [1, 5] | OTUB2 % labeling (OTUB2) |
| --- | --- | --- | --- | --- | --- | --- | --- |
| CC(C)(C)c1ccc(C(=O)NNC(=O)CCl)cc1 [PCM-0102355, CC(C)(C)c1ccc(C(=O)NNC(=O)CCl)cc1] | 0% |  |  |  | -17.324 | -17.324 | 66% |
| CC(NC(=O)CCl)c1cc2ccccc2o1 (stereo not drawn) [PCM-0102117, CC(NC(=O)CCl)c1cc2ccccc2o1] | 12% |  |  |  | -16.443 | -16.443 | 41% |
| O=C(CCl)Nc1ccccc1Cl [PCM-0102152, O=C(CCl)Nc1ccccc1Cl] | 0% |  |  |  | -16.303 | -16.303 | 20% |
| Cc1ccc(NC(=O)NC(=O)CCl)cc1C [PCM-0102119, Cc1ccc(NC(=O)NC(=O)CCl)cc1C] | 9% |  |  |  | -16.034 | -16.034 | 0% |
| O=C(CCl)NCC1Cc2ccccc2O1 (stereo not drawn) [PCM-0103020, O=C(CCl)NCC1Cc2ccccc2O1] | 0% | -17.072 | -17.072 | 0% |  |  |  |
| O=C(CCl)Nc1ccc2c(c1)OCCCO2 [PCM-0102409, O=C(CCl)Nc1ccc2c(c1)OCCCO2] | 10% |  |  |  | -15.744 | -15.744 | 23% |
| O=C(CCl)N1CCCC(c2nc3ccccc3s2)C1 (stereo not drawn) [PCM-0102425, O=C(CCl)N1CCCC(c2nc3ccccc3s2)C1] | 28% |  |  |  | -15.591 | -15.591 | 0% |
| CC(=O)c1cc2c(cc1NC(=O)CCl)OCO2 [PCM-0103010, CC(=O)c1cc2c(cc1NC(=O)CCl)OCO2] | 14% | -17.333 | -17.333 | 0% |  |  |  |
| O=C(CCl)N1CCN(c2ncc(Cl)cc2Cl)CC1 [PCM-0103022, O=C(CCl)N1CCN(c2ncc(Cl)cc2Cl)CC1] | 22% | -15.906 | -15.906 | 0% |  |  |  |
| CC1CC(=O)Nc2ccccc2N1C(=O)CCl (stereo not drawn) [PCM-0102697, CC1CC(=O)Nc2ccccc2N1C(=O)CCl] | 22% |  |  |  | -15.686 | -15.686 | 0% |
| O=C(CCl)NC12CC3CC(CC(C3)C1)C2 [PCM-0102118, O=C(CCl)NC12CC3CC(CC(C3)C1)C2] | 0% |  |  |  | -16.476 | -16.476 | 0% |
| CN(CCC#N)C(=O)CCl [PCM-0102712, CN(CCC#N)C(=O)CCl] | 0% |  | -15.839 |  |  | -15.839 | 0% |
| O=C(CCl)NC(=O)Nc1ccc2c(c1)OCCO2 [PCM-0102614, O=C(CCl)NC(=O)Nc1ccc2c(c1)OCCO2] | 23% |  |  |  | -16.380 | -16.380 | 27% |
| Cc1ccc(C(=O)N2CCN(C(=O)CCl)CC2)cc1 [PCM-0102962, Cc1ccc(C(=O)N2CCN(C(=O)CCl)CC2)cc1] | 0% | -15.309 | -15.309 | 0% |  |  |  |
| CN(C(=O)CCl)C1CCS(=O)(=O)C1 (stereo not drawn) [PCM-0102178, CN(C(=O)CCl)C1CCS(=O)(=O)C1] | 0% |  |  |  | -15.027 | -15.027 | 0% |
| Cc1ccc(CNC(=O)CCl)cc1 [PCM-0102660, Cc1ccc(CNC(=O)CCl)cc1] | 0% |  |  |  | -16.571 | -16.571 | 63% |
| N#CC(c1ccccc1)N1CCN(C(=O)CCl)CC1 (stereo not drawn) [PCM-0102381, N#CC(c1ccccc1)N1CCN(C(=O)CCl)CC1] | 11% |  |  |  | -15.106 | -15.106 | 0% |
| CC(NC(=O)CCl)c1ccc2c(c1)OCO2 (stereo not drawn) [PCM-0103030, CC(NC(=O)CCl)c1ccc2c(c1)OCO2] | 12% | -16.554 | -16.554 | 28% |  |  |  |
| O=C(CCl)N1CCC(c2ccccc2)=N1 [PCM-0102150, O=C(CCl)N1CCC(c2ccccc2)=N1] | 0% |  |  |  | -14.898 | -14.898 | 0% |
| Cc1nc(C2(NC(=O)CCl)CCCCCC2)no1 [PCM-0102944, Cc1nc(C2(NC(=O)CCl)CCCCCC2)no1] | 0% | -17.037 | -17.037 | 0% |  |  |  |
| Cc1cc(NC(=O)CCl)on1 [PCM-0102197, Cc1cc(NC(=O)CCl)on1] | 0% |  |  |  | -16.303 | -16.303 | 0% |
